Assay results taken from patent US8772343B2, “Chemical compounds” (Pfizer Limited, priority 2010, dated 2014).

Biological target: T1, Nav1.7 (or SCN9A) channel (Homo sapiens, UniProt Q15858)
T1 construct: expressed in transfected cells
Experiment: Nav1.7 Ionworks Quattro automated electrophysiology in HEK cells expressing hSCN9A
Type: cell-based
Settings: estimated IC50, values marked (IW), Ionworks Quattro assay, read-out: Nav1.7 EIC50 (IW)
Description: The ability of the compounds of formula (I) to block the Nav1.7 (or SCN9A) channel were measured using the assay described below. Human Embryonic Kidney (HEK) cells were transfected with an hSCN9A construct using lipofectamine reagent (Invitrogen), using standard techniques. Cells stably expressing the hSCN9A constructs were identified by their resistance to G-418 (400 μg/ml). Clones were screened for expression using the whole-cell voltage-clamp technique. HEK cells stably transfected with hSCN9A were maintained in DMEM medium supplemented with 10% heat-inactivated fetal bovine serum and 400 μg/ml G-418 in an incubator at 37° C. with a humidified atmosphere of 10% CO2. For HTS, cells were harvested from flasks by trypsinization and replated in an appropriate multi-well plate (typically 96 or 384 wells/plate) such that confluence would be achieved within 24 hours of plating. For electrophysiological studies, cells were removed from the culture flask by brief trypsinization and re-plated at low density onto glass cover slips. Cells were typically used for electrophysiological experiments within 24 to 72 hours after plating. Electrophysiological assays were also conducted using the Ionworks Quattro automated electrophysiological platform (Molecular Devices Corp). Intracellular and extracellular solutions were as described above with the following changes, 120 μg/ml amphotericin was added to the intracellular solution to perforate the membrane and allow electrical access to the cells. hSCN9A cells were grown and harvested as for PatchXpress and cells were resuspended in extracellular solution at a concentration of 1×10^6 cells/ml. The onboard liquid handling facility of the Ionworks Quattro was used for dispensing cells and application of test compounds. A voltage protocol was then applied that comprised of a voltage step to fully inactivate the sodium channels, followed by a brief hyperpolarized recovery period to allow partial recovery from inactivation for unblocked sodium channels, followed by a test depolarized voltage step to assess magnitude of inhibition by test compound. Compound effect was determined based on current amplitude difference between the pre-compound addition and post-compound addition scans. Compounds of the Examples were tested in the assays described above and found to have the Nav1.7 EIC50 (uM) values specified in the table below. All data are derived from the PatchXpress assay unless expressly stated otherwise.

T1 sequence (Q15858 whole entry): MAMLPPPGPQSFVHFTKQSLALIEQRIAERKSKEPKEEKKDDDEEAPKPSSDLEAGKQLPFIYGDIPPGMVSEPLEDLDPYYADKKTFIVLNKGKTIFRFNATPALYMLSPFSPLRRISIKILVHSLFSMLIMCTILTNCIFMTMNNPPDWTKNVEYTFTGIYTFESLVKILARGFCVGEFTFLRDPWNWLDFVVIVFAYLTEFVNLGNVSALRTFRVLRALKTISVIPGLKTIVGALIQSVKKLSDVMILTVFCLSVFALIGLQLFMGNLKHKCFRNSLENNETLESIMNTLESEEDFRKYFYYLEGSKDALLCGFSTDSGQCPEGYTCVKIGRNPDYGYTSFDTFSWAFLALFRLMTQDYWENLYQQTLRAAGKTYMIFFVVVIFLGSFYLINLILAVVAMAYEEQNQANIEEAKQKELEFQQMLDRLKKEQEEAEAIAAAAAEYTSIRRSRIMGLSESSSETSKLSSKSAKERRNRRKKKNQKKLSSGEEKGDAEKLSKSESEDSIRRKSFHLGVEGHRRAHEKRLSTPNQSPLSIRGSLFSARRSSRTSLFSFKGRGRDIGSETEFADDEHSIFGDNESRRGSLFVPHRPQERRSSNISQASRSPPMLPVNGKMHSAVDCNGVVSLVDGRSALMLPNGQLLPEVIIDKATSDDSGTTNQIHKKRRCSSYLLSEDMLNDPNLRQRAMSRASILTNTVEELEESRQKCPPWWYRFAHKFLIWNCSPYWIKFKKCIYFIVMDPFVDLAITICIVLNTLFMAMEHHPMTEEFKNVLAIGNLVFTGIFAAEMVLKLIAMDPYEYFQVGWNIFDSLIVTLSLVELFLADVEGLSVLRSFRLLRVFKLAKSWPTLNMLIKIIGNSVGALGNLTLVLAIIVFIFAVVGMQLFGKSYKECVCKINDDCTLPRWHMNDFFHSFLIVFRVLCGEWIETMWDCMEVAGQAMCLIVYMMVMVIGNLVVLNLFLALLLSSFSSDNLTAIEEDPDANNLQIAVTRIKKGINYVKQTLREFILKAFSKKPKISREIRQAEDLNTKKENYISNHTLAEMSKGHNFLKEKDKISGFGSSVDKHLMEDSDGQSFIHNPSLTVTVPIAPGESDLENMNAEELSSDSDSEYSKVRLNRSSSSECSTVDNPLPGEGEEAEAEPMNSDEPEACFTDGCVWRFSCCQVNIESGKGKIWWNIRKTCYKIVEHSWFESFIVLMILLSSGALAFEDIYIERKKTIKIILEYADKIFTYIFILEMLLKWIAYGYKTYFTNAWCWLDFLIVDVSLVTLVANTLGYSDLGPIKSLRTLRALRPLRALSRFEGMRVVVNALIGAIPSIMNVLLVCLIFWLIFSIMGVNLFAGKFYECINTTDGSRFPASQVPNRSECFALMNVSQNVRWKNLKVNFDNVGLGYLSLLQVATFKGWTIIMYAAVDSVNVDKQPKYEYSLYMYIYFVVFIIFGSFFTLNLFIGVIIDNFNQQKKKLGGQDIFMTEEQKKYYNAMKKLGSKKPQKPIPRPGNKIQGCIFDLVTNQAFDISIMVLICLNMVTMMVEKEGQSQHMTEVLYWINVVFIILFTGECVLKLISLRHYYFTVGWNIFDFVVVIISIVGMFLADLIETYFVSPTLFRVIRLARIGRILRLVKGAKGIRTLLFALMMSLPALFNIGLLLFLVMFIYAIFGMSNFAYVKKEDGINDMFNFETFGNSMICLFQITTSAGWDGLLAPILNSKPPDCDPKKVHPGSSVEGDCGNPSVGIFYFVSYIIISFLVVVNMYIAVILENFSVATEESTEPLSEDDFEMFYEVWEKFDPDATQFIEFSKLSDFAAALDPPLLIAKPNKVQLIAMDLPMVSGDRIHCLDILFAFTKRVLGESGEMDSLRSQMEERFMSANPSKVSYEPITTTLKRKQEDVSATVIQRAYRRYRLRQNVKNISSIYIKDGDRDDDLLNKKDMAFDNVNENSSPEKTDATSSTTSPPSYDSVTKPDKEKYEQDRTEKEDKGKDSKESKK

In order of falling IC50:
1. Cc1ncc(-c2cc(C(=O)NS(C)(=O)=O)ccc2Oc2ccc(Cl)cc2)cn1 [Example 46, 4-(4-chlorophenoxy)-3-(2-methylpyrimidin-5-yl)-N-(methylsulfonyl)benzamide]  151 µM
2. COc1ncc(-c2cc(C(=O)NS(C)(=O)=O)ccc2Oc2ccc(Cl)cc2)cn1 [Example 40, 4-(4-chlorophenoxy)-3-(2-methoxypyrimidin-5-yl)-N-(methylsulfonyl)benzamide]  69 µM
3. CS(=O)(=O)NC(=O)c1ccc(Oc2ccc(Cl)cc2)c(-c2cn[nH]c2)c1 [Example 30, 4-(4-chlorophenoxy)-N-(methylsulfonyl)-3-(1H-pyrazol-4-yl)benzamide]  18 µM
4. CS(=O)(=O)NC(=O)c1ccc(Oc2ccc(Cl)cc2)c(-c2cccc(C#N)c2)c1 [Example 26, 6-(4-chlorophenoxy)-3′-cyano-N-(methylsulfonyl)-biphenyl-3-carboxamide]  17 µM
5. CS(=O)(=O)NC(=O)c1ccc(Oc2ccc(Cl)cc2)c(-c2cncc(C#N)c2)c1 [Example 44, 4-(4-chlorophenoxy)-3-(5-cyanopyridin-3-yl)-N-(methylsulfonyl)benzamide]  17 µM
6. CS(=O)(=O)NC(=O)c1ccc(Oc2ccc(Cl)cc2)c(-c2cccc(OC(F)(F)F)c2)c1 [Example 28, 6-(4-chlorophenoxy)-N-(methylsulfonyl)-3′-(trifluoromethoxy)biphenyl-3-carboxamide]  16 µM
7. CS(=O)(=O)NC(=O)c1ccc(Oc2ccc(Cl)cc2)c(-c2cccc(Cl)c2)c1 [Example 22, 3′-chloro-6-(4-chlorophenoxy)-N-(methylsulfonyl)-biphenyl-3-carboxamide]  15 µM
8. CS(=O)(=O)NC(=O)c1ccc(Oc2ccc(Cl)cc2)c(-c2ccc(C#N)cc2)c1 [Example 25, 6-(4-chlorophenoxy)-4′-cyano-N-(methylsulfonyl)-biphenyl-3-carboxamide]  10 µM
